# Measured values taken from patent US10766912B2 (priority 2017, dated 2020).
# Key:
# [1] = system: HCV GT1b/3a NS5A chimeric replicon; assay: Assay Example 1: activity against HCV GT1b/3a NS5A chimeric replicon; format: cell-based; conditions: Hepatitis C virus, Huh-7, 72 h, read-out: EC50 value GT1b/3a NS5A chimeric replicon
# Description: (§1) Cells: Huh 7 cell line and HCV GT1b/3a and GT1b/6a NS5A chimeric replicons and GT1b and GT1a wild-type replicon RNA.
# (§2) Treatment of Compound: According to the assay final concentrations of the compounds in Table 2, DMSO stock solutions of the compounds were diluted and then added to a 96-well assay plate. The final concentration of DMSO was 0.5%.
# (§3) The preparation of cells: After replicon plasmid DNA was linearized with a corresponding restriction enzyme, the DNA was transcribed into RNA by using T7RNA polymerase. Replicon RNA prepared by transcription in vitro was transfected into Huh-7 cells by electroporation. Transfected cells were seeded at a density of 10,000 cells per well into the 96-well assay plate containing the diluted compounds, and then the plate was placed in a 37° C. incubator with 5% CO2 and cultured for 3 days.
# (§4) Drug activity assay: Luminescence signal value (RLU) was detected with Envision within 15 minutes using the luciferase assay reagent Britelite plus, and the original data (RLU) was used for the calculation of the activity of the compounds.
# (§5) The activity of the compounds was calculated by using the equation below: Inhibition %=(ZPE−CPD)/(ZPE−HPE)×100%*
# (§6) The cell viability percentages (Viability %) and the inhibition percentages (Inhibition %) were imported into GraphPad Prism software, respectively, and curves were fitted by using nonlinear regression method to obtain the corresponding curves of the compounds, and the cytotoxicity (CC50) thereof and inhibitory activity (EC50) values against the HCV replicon thereof.
# [2] = system: HCV GT1b/6a NS5A chimeric replicon; assay: Assay Example 1: activity against HCV GT1b/6a NS5A chimeric replicon; format: cell-based; conditions: Hepatitis C virus, Huh-7, 72 h, read-out: EC50 value GT1b/6a NS5A chimeric replicon
# Description: as §1, §2, §3, §4, §5, §6
# [3] = Assay Example 3: parallel cytotoxicity assay (alamarBlue) without viral infection; format: cell-based; conditions: human, Huh7.5.1 cells without viral infection, no viral infection, read-out: CC50 Value HCVcc
# Description: Cells: Huh7.5.1 cells and hepatitis C virus HCVcc (GT2a, JFH-1) infection system.
# Treatment of Compound: According to the assay final concentrations of the compounds in Table 6, DMSO stock solutions of the compounds were diluted and then added to a 96-well assay plate. The final concentration of DMSO was 0.5%.
# Viral infection: Huh7.5.1 cells were seeded in a 96-well cell culture plate, and the cells were cultured overnight at 37° C. in an incubator with 5% CO2 for later use. The compound and the HCVcc virus solution (MOI=0.1) were simultaneously added to the cells, and the virus infection was cultured for 3 days. Parallel cytotoxicity assay was identical to the method for the inhibition of the virus but without viral infection.
# Cell viability assay: Cell viability was detected by the addition of alamarBlue assay reagent. The original data (RFU) was used for the calculation of the cytotoxicity of the compounds.
# The cytotoxicity of the compounds was calculated by using the equation below: Cell Viability %=CPD/CC×100%*
# as §6, with “(Cell Viability” for “(Viability”, “compound activity” for “inhibition”
# [4] = Assay Example 5: distribution in mouse plasma and liver tissue; format: in vivo; conditions: 10 mg/kg intragastric; for Kp at 0.5 h / Kp at 3 h / Kp at 8 h: male, oral, liver/plasma, read-out: Ratio (L/P)
# Description: Eighteen male mice were randomly divided into two groups, fasted (free access to water) overnight, and then intragastrically administered with 10 mg/kg of Compound 1a and Compound 6b, respectively. The subject animals were sacrificed by bloodletting at 0.5 h, 3 h and 8 h after administration. About 1 mL of blood was taken, and anticoagulated with EDTA-K2. The blood samples were immediately placed in ice, and then transferred within 30 min to centrifuge and separate plasma at 4° C. and 4,000 rpm for 10 min. Meanwhile, the whole liver was taken out at the various time points, rinsed with ice-cold physiological saline, blotted dry, weighed, and prepared into a homogenate with physiological saline (W/V=1:5). All plasma and liver homogenates were collected and then immediately stored at −20° C. for testing.
# The mice can be fed at 4 h after administration.
# After being completely melted, all the samples were vortexed to mix evenly. 50 μL of the samples were pipetted into a 1.5 mL centrifuge tube respectively and then 200 μL of IS-D (20 ng/ml diazepam acetonitrile) solution was added to each sample (200 μL of acetonitrile was added to the blank sample). The samples were vortexed for 10 min and then centrifuged at 12,000 rpm and 4° C. for 10 min. After 80 μL of pure water was added to a 96-well plate, 80 μL of the supernatants were pipetted respectively from the centrifuge tubes to the 96-well plate, vortexed for 3 min, and then kept at 4° C. until LC-MS/MS injection analysis.
# [5] = system: GT1a-NS5A-L31V mutant replicon; assay: Assay Example 6: drug resistance, activity against GT1a-NS5A-L31V mutant replicon; format: cell-based, hepatitis C virus; conditions: for GT1a-NS5A-L31V Fold change: EC50 mutant versus GT1a-wt; for EC50: Hepatitis C virus, GT1A, Huh-7, 72 h, read-out: GT1a-NS5A-L31V EC50 value
# Description: Cells: Huh-7 cells are liver cancer cell strains (from AppTec, USA), HCVGT1a wild-type replicon and GT1a-NS5A-Y93H and GT1a-NS5A-L31V mutant replicons
# Treatment of Compound: According to the assay final concentrations of the compounds in Table 11, DMSO stock solutions of the compounds were diluted and then added to a 96-well assay plate. The final concentration of DMSO was 0.5%.
# as §3, with “T7 RNA” for “T7RNA”, “then” for “then the plate was”
# Compound activity assay: Luminescence signal value (RLU) was detected with Envision within 5 minutes by using the luciferase assay reagent Britelite plus, and the original data (RLU) was used for the calculation of the activity of the compounds.
# The activity of the compounds was calculated by using the equation below: Inhibition %=(CPD−ZPE)/(HPE−ZPE)×100%*
# The compound activity percentages (Inhibition %) were imported into GraphPad Prism software, and curves were fitted by using nonlinear regression method to obtain the corresponding curves of the compounds and the inhibitory activity (EC50) values against the HCV replicon thereof.
Compound,EC50 [1],EC50 [2],CC50 at 3 days [3],Liver concentration ([4]; 0.5 h),Plasma concentration ([4]; 0.5 h),Liver concentration ([4]; 3 h),Plasma concentration ([4]; 3 h),Liver concentration ([4]; 8 h),Plasma concentration ([4]; 8 h),Kp at 0.5 h ([4]; 0.5 h),Kp at 3 h ([4]; 3 h),Kp at 8 h ([4]; 8 h),GT1a-NS5A-L31V Fold change [5],EC50 [5]
"COC(=O)N[C@H](C(=O)N1CCC[C@H]1C(=O)Nc1ccc([C@@H]2CC[C@@H](c3ccc(NC(=O)[C@@H]4CCCN4C(=O)[C@@H](NC(=O)OC)[C@@H](C)OC)cc3)N2c2cc(F)c(N3CC[Si](C)(C)CC3)c(F)c2)cc1)[C@@H](C)OC [Compound 1a, Methyl ((2S,2′S,3R,3′R)-((2S,2′S)-(((((2S,5S)-1-(4-(4,4-dimethylazasilinan-1-yl)-3,5-difluorophenyl)pyrrolidin-2,5-diyl)bis(4,1-phenylene))bis(azanediyl))bis(carbonyl))bis(pyrrolidin-2,1-diyl))bis(3-methoxy-1-oxobutan-1,2-diyl))dicarbamate]",0.003 nM,0.017 nM,> 0.1 nM,337 ± 33.1,139 ± 16.9,2644 ± 147.3,384 ± 81,334 ± 73.9,59 ± 7.8,2.43,6.89,5.67,40.9,0.027 nM
COC(=O)N[C@H](C(=O)N1CCC[C@H]1C(=O)Nc1ccc([C@H]2CC[C@H](c3ccc4nc([C@@H]5CCCN5C(=O)[C@@H](NC(=O)OC)[C@@H](C)OC)[nH]c4c3)N2c2cc(F)c(N3CC[Si](C)(C)CC3)c(F)c2)cc1)[C@@H](C)OC [Compound 6b],0.0024 nM,0.0054 nM,> 0.1 nM,401 ± 116,226 ± 66,960 ± 530,464 ± 363.3,18 ± 1,10 ± 5.8,1.78,2.07,1.76,10.0,0.022 nM
